Experimental findings from patent US4992455A, “Thiazolidin-4-one derivatives useful for treating diseases caused by platelet activating factor” (Sumitomo Pharmaceuticals Company, Limited, priority 1987, dated 1991) are described below.

In brackets after ≈: the same amount, converted by molar mass. Where a name gives a salt, the structure may show the parent alone.

Assay [1] concerns fatal effect of PAF on mice. The assay is described as follows: Test for inhibition of fatal effect of PAF on mice. It counts as in vivo, Male ICR mice. To be noted: 10 mg/kg iv, PAF 10 μg/kg iv, 2 hours after PAF. On the procedure:
Male ICR mice (perchased from Charles River Co.) aged 4 weeks were anesthetized by injecting subcutaneously 100 mg/kg of Isomital® soda (sodium amobarbital supplied by Nippon Shinyaku Co., Ltd.). After 18 minutes, the mice were injected with a test compound or a solvent through tail veins. The test compound was dissolved in a 0.2 M phosphate buffer solution to a concentration of 1 mg/ml and 10 ml/kg of this solution was injected (dose of test compound 10 mg/kg). Two minutes after this administration, the mice were injected with 10 μg/kg of PAF through tail veins. The PAF was dissolved in physiological saline containing 0.25% of bovine serum albumin to a concentration of 2 μg/ml, and the mice were injected with 5 ml/kg of this solution.
After PAF administration, the mice were observed and the survival rate of mice 2 hours later was determined.

Assay [2] has as its system PAF-induced rabbit platelet aggregation. In words: Inhibition of PAF-induced rabbit platelet aggregation (in vitro, platelet-rich plasma). It counts as cell-based. To be noted: Oryctolagus cuniculus, rabbit PRP, 37° C., final PAF concentration 0.005 μ1/ml [sic]. On the procedure: (§1) The inhibition of PAF-induced platelet aggregation was examined by using a platelet-rich plasma (PRP) of rabbit according to the method of Mustard et al. [J.F. Mustard et al., J. Lab. Clin. Med., 64, 548 (1964)], which is an improvement of the method of Born [G.V.R. Born, J. Physiol., London, 162, 67 (1962)]. That is, 80-100 ml of blood per animal was collected from carotid arteries of male rabbits of the Japanese white breed without anesthesia into a polyethylene vessel containing 1/10 the volume of a 3.8% sodium citrate solution. A portion (about 3 ml) of the collected blood was centrifuged at a high speed (11,000 rpm) for 60 seconds, giving a platelet-poor plasma (PPP) as supernatant. The remainder of the blood was centrifuged at a low speed (1000 rpm) for 10 minutes, giving a platelet-rich plasma (PRP) as supernatant.
(§2) The degree of platelet aggregation was determined by nephelometry with an aggregometer (Hematracer, Niko Bioscience Co.) while stirring the PRP at 1000 rpm at 37° C. The platelet aggregation activity was expressed in terms of the light transmittance (%), the value of PRP being taken as 0% and the value of PPP as 100%. A portion (0.2 ml) of the PRP was placed in a glass cuvette containing a silicone-treated stirring iron rod, and 2 µl of dimethylsulfoxide was added. AFter 2 minutes, PAF dissolved in 0.25% BSA physiological saline was added to give a final PAF concentration of 0.005 μ1/ml, and the maximum aggregation was determined. To examine the inhibitory activity of test compounds on the platelet aggregation caused by PAF, 2 µl of a dimethylsulfoxide solution of each test compound was added in place of the dimethylsulfoxide. The percentage inhibition by the test compound of PAF-induced platelet aggregation was calculated according to the following equation and the value of IC50 was determined. [formula]

In assay [3] the test system is PAF-induced human platelet aggregation. In words: Inhibition of PAF-induced human platelet aggregation (in vitro, human PRP). It counts as cell-based. The procedure: as §1, §2
The inhibition of PAF-induced platelet aggregation was tested by using human PRP. The test was conducted according to the procedure of the above case of rabbit, thereby evaluating the percentages inhibition and IC50 values of test compounds at final PAF concentrations of 0.3 μM and 1 μM.

For assay [4], the system named is PAF-induced blood concentration. In words: Test in vivo for inhibition of PAF-induced blood concentration. To be noted: guinea pigs, dose 30 mg/kg iv, PAF iv 2 min later. On the procedure: Guinea pigs under anesthesia with urethane (6.25 mg/kg injected into the abdominal cavities) were cannulated through carotid arteries and jugular veins. The carotid artery cannulae were used for blood sampling and the jugular vein cannulae for the intravenous injection of test compound and PAF.
Compound No. 27 was suspended in 10% Nikkol® liquid to a concentration of 3 mg/ml, and 1 ml/kg of the resulting suspension was administered through the jugular vein cannulae. Two minutes later, 1 ml/kg of a 0.1 μg/m1 PAF solution was administered through the jugular vein cannulae. Then, blood was sampled at times. The blood samples were each centrifuged at 11,000 rpm for 5 minutes and the hematocrit values were measured to determine the maximum increase (blood concentration) in hematocrit value.
For a control, 0.5% methyl cellulose solution was administered in place of compound No. 27.
The percentage inhibition of the PAF-induced blood concentration by compound No. 27 was calculated according to the following equation: [formula] The found percentage inhibition was 87%.

Turning to `CCCCCCC[C@H]1S[C@H](c2cccnc2)N(CCN(C)C)C1=O` (relative stereo) [compound 175], the Survival rate in assay [1] is recorded as 60%.

`C[C@H]1S[C@@H](c2cccnc2)N(C)C1=O` (relative stereo) [compound 182, 3,5-dimethyl-2-(3-pyridyl)thiazolidin-4-one hydrochloride]: the Survival rate in assay [1] is 100%.

In turn, `CCCCCC[C@H]1S[C@H](c2cccnc2)N(CCN(C)C)C1=O` (relative stereo) [compound 174] gave a Survival rate in assay [1] of 80%.

With `C[C@H]1S[C@H](c2cccnc2)N(C)C1=O` (relative stereo) [compound 3, 3,5-Dimethyl-2-(3-pyridyl)thiazolidin-4-one], the results for the IC50 in assay [2] and in assay [3] (PAF concentration 0.3 μM) were 3.5 µg/mL (≈ 16.8 µM) and 6 µg/mL (≈ 28.8 µM), respectively. Also, the “Percentage inhibition of PAF-induced blood concentration (maximum increase in hematocrit value)” value in assay [4] was found to be 58%.

For `CCCCCCCCC[C@H]1S[C@@H](c2cccnc2)N(CCN(C)C)C1=O` (relative stereo) [compound 28, 3-(2-Dimethylaminoethyl)-5-(n-nonyl)-2-(3-pyridyl)thiazolidin-4-one], the IC50 amounted to 0.2 µg/mL (≈ 0.53 µM) in assay [2], 1.2 µg/mL (≈ 3.18 µM) in assay [3] (PAF concentration 0.3 μM) and 2.5 µg/mL (≈ 6.62 µM) in assay [3] (PAF concentration 1 μM). Besides, the “Percentage inhibition of PAF-induced blood concentration (maximum increase in hematocrit value)” value in assay [4] is reported as 92%.
